Reference: publication PMC10579241, “Impact of trifluoromethyl and sulfonyl groups on the biological activity of novel aryl-urea derivatives: synthesis, in-vitro, in-silico and SAR studies” (Scientific Reports, 2023)
Marks after values point to notes of the source that are not given here.

Tests used:
Escherichia coli = experiment: Agar well diffusion, E. coli; format: cell-based; settings: Escherichia coli, read-out: Inhibition zones diameter; for zone of inhibition at 10 µg/disc: E. coli, reference antibiotic 10 mcg
prostate cancer (PC3) = experiment: cells; format: cell-based; settings: Homo sapiens, 48 h, 100 μg/mL
colon cancer (HCT116) = experiment: cells; format: cell-based; settings: Homo sapiens, HCT-116, 48 h, 100 μg/mL
Bacillus mycoides = experiment: microbe, parasite or virus in culture; format: cell-based; settings: Bacillus mycoides, read-out: Inhibition zones diameter
[1] = system: osteosarcoma cell line (HOS); experiment: cells; format: cell-based; settings: Homo sapiens, 48 h; for mortality at 100 µg/mL: 100 μg/mL
[2] = system: normal skin fibroblast cell line (BJ1); experiment: cells; format: cell-based; settings: Homo sapiens, Skin fibroblast, MTT, 48 h
Candida albicans = experiment: Agar well diffusion, C. albicans; format: cell-based; settings: Candida albicans, read-out: Inhibition zones diameter; for zone of inhibition at 10 µg/disc: C. albicans, reference antibiotic 10 mcg
[3] = system: human lung carcinoma (A549); experiment: cells; format: cell-based; settings: A549, 48 h, 100 μg/mL
PACA2 [4] = experiment: DNA fragmentation assay, PACA2; format: cell-based, human
PALB2 = experiment: qRT-PCR, PALB2 in PACA2 cells; format: cell-based, human; settings: versus negative untreated sample
PACA2 [5] = experiment: DNA damage, comet assay, PACA2; format: cell-based, human
[6] = system: pancreatic cancer cell line (PACA2); experiment: cells; format: cell-based; settings: Homo sapiens, PaCa-2, 48 h; for mortality at 100 µg/mL: 100 μg/mL
CDKN2A = experiment: qRT-PCR, CDKN2A in PACA2 cells; format: cell-based, human; settings: versus negative untreated sample
in vitro = format: cell-based; settings: human, BJ1 normal skin fibroblast cells, 100 μg/mL
[7] = system: hepatocellular carcinoma cell line (HePG2); experiment: cells; format: cell-based; settings: Homo sapiens, 48 h; for mortality at 100 µg/mL: 100 μg/mL; for IC50: MTT
skin cancer (A431) = experiment: cells; format: cell-based; settings: Homo sapiens, A-431, 100 μg/mL, 48 h

Structure (SMILES) | zone of inhibition at 10000 µg/mL (Escherichia coli) [mm] | mortality at 100 µg/mL (prostate cancer (PC3)) [%] | mortality at 100 µg/mL (colon cancer (HCT116)) [%] | zone of inhibition at 10000 µg/mL (Bacillus mycoides) [mm] | zone of inhibition at 10000 µg/mL (Candida albicans) [mm] | mortality at 100 µg/mL [3] [%] | mortality at 100 µg/mL [6] [%] | zone of inhibition at 10 µg/disc (Escherichia coli) [mm] | zone of inhibition at 10 µg/disc (Bacillus mycoides) [mm] | zone of inhibition at 10 µg/disc (Candida albicans) [mm] | mortality at 100 µg/mL [1] [%] | mortality at 100 µg/mL [7] [%] | IC50 [7] [µM] | mortality at 100 µg/mL (skin cancer (A431)) [%] | further results
Cc1ccc(NC(=O)Nc2cc(C(F)(F)F)cc(C(F)(F)F)c2)cc1 [Compound 15, 1-[3,5-Bis(trifluoromethyl)phenyl]-3-(p-tolyl)urea] | 24 ± 0.68 | > 75 | 49.6 ± 1.23 | 23 ± 0.35 | 24 ± 1.22 | > 50 | > 75 |  |  |  |  |  |  |  | IC50 ([1]; MTT): 37.3 ± 0.37 µM; IC50 [2]: 94.4 ± 0.71 µM; Change (DNA fragmentation versus untreated cells) (PACA2 [4]): 20.20; DNA fragmentation % M ± SEM (PACA2 [4]; IC50 concentration, 24 h): 32.3 ± 0.74^ab %; Inhibition (PACA2 [4]; doxorubicin = 0.0): 12.22; PALB2 gene expression level (PALB2): significantly reduced; DNA damaged cells % (mean ± SEM) (PACA2 [5]): 21.00 ± 1.29^a %; Class 0 (no tail), number of cells (PACA2 [5]; of 400 cells analyzed): 316; Class 1 (tail length < diameter of nucleus), number of cells (PACA2 [5]; of 400 cells analyzed): 31; Class 2 (tail length between 1 and 2 × the diameter of nucleus), number of cells (PACA2 [5]; of 400 cells analyzed): 25; Class 3 (tail length > 2 × the diameter of nucleus), number of cells (PACA2 [5]; of 400 cells analyzed): 28; No. of cells, Comets (PACA2 [5]; of 400 cells analyzed): 84; IC50 ([6]; MTT): 82.5 ± 0.21 µM; CDKN2A gene expression level (CDKN2A): significantly reduced
CNC(C)C1CCC(N)C(OC2C(N)CC(N)C(OC3OCC(C)(O)C(NC)C3O)C2O)O1 (centres unmarked) [Gentamicin, reference compound] |  |  |  |  |  |  |  | 12 ± 0.18 | 11 ± 0.43 | 12 ± 0.89 |  |  |  |  | 
CC1(C)S[C@@H]2[C@H](NC(=O)[C@H](N)c3ccccc3)C(=O)N2[C@H]1C(=O)O [Ampicillin, reference compound] |  |  |  |  |  |  |  | 20 ± 1.05 | 12 ± 0.93 | 14 ± 0.25 |  |  |  |  | 
Cc1ccc(NC(=O)Nc2ccc(C(F)(F)F)cc2)cc1 [Compound 13, 1-(p-Tolyl)-3-[4-(trifluoromethyl)phenyl]urea] | 18 ± 1.84 | 47.2 ± 0.63 | 11.5 ± 1.19 | 16 ± 0.41 | 18 ± 0.66 | 3.5 ± 0.55 | 35.8 ± 0.91 |  |  |  | ~74.3 | 100 | 121.7 ± 0.85 | 1.3 ± 0.78 | mortality at 48 h, 100 µg/mL (in vitro): 84.2 ± 1.61%
Cc1ccc(NC(=O)Nc2ccccc2C(F)(F)F)cc1 [Compound 17, 1-(p-Tolyl)-3-[2-(trifluoromethyl)phenyl]urea] | 16 ± 0.54 | > 50 | 7.5 ± 0.92 | 18 | 15 ± 0.42 | 7.3 ± 0.35 | > 50 |  |  |  | > 50 | 71.2 ± 1.45 | 199.3 ± 0.82 | 3.1 ± 1.14 | 
NC[C@H]1O[C@H](O[C@H]2[C@H](O)[C@@H](O[C@H]3O[C@H](CO)[C@@H](O)[C@H](N)[C@H]3O)[C@H](N)C[C@@H]2N)[C@H](N)C[C@@H]1O [Tobramycin, reference compound] |  |  |  |  |  |  |  | 13 ± 0.22 | 10 ± 0.31 | 12 ± 0.61 |  |  |  |  | 
